Read-outs that look alike come from different tables or passages of the source.

The target of assay [1] is testes receptor (testis membranes). The assay can be described thus: Displacement of [125I]074(d) from rat testis membranes (Scatchard / displacement binding assay). On the procedure:
• 1. […] Homogenize the tissue for 20 sec with a Polytron tissue homogenizer (probe no. PTA 10S, 12 mm) at a medium setting (4-6 on a rheostat scale of 10) or until a smooth suspension is obtained. • 4. Pour the homogenate into a chilled 50 ml, centrifuge tube, and centrifuge at 0-4° C. and 500×g ( 1540 rpm in an […]) for 10 min. • 5. Decant the supernatant into clean 10 ml, centrifuge tubes, using multiple tubes as necessary. • 6. Centrifuge the decanted supernatant at 0-4° C. and 17000×g ( 11900 rpm in a Sorvall SS-34 rotor) for 12 min. • 7. Decant and discard the supernatants. […] Perform a total protein assay on resuspended pellet. The […] assay measures the binding of a radiolabeled test compound, over a wide concentration range, to the membrane receptors in both the absence (total binding) and presence (non-specific binding) of non-radioactive compound. Calculation of the resulting assay data yields the Kd of the test compound. • 1. Label 1.2 mL polypropylene tubes in duplicate for each [^125I]074(d) standard total binding and non-specific binding (NSB) determination and place in 96-well matrix test tube racks. Label liquid scintillation vials for free radioactivity determination. • 2. Prepare dilutions of the [^125I]074(d) ranging in concentration from approximately 1 to 200 nM or other desired concentration range. Prepare cold drug at a concentration of at least 100 times the level of the highest level of radiolabeled standard (e.g. 20-40 µM) for NSB determination. • 3. Set up the assay as follows: • 4. […] Add 0.1 mL (200 μg) to each assay tube. Vortex to mix. • 5. Incubate assay at 25° C. for 2 hours while gently shaking at 30-35 rpm (e.g. Precision Scientific Reciprocal Shaker or equivalent). • 6. […] Near the end of the incubation period, place a blank wash plate in the cell harvester (model MPXR-96T, Brandel Scientific, Gaithersburg, Md.). Place cold wash buffer in the reservoir supplying the harvester. Prime the harvester with buffer. Replace the dummy filter plate with the pre-soaked plate. • 8. At the end of the incubation period, remove tubes from incubator. Place the harvester prongs into the tubes, and vacuum to deposit the reaction mixture onto the filter plate. Rinse the reaction tubes 3-4 times with cold buffer and vacuum through the filter plate. • 9. Remove the filter plate from the harvester and allow it to dry thoroughly, using a warm oven if desired. • 10. Seal the bottom of the plate. Insert the plate into the cocktail dispenser and add cocktail (Micro-Scint 20, Perkin Elmer LAS, Shelton, Conn.) to each well • 11. Seal the top of the plate. Allow the plate to sit at least one hour or overnight and then count. • 1. For each level of standard, determine the CP Ms of free (essentially equivalent to total radioactivity added), total bound, and non-specific bound (NSB) compound. • 2. Subtract the NSB CPMs from the corresponding total CP Ms for each standard level to determine specific bound for each standard level. • 3. Convert the free, specific bound and non-specific bound CPMs to a mass basis (e.g. pM) using the specific activity, counter efficiency for the isotope ( 70% for ^125I in a Packard Model 1900TR. Liquid Scintillation Analyzer) and assay dilution factor of the labeled material. • 4. For each standard level, divide the level of compound specifically bound by the corresponding free amount added. • 5. For […] analysis, perform a linear regression analysis where x=specific bound compound and y=ratio of corresponding specific bound/free compound added. • 6. The Kd=-1/slope of the line generated. • 7. For illustrative purposes, a binding isotherm graph can be generated where x=free compound and y=total bound, non-specific bound and specific bound compound. The displacement assay measures the ability of a test drug, over a wide concentration range, to compete with and displace a constant amount of a known radiolabeled drug bound to the testes receptor. Calculation of the resulting assay data yields the Ki of the test drug. • 1. […]

The subject of assay [2] is testes / spermatogenesis in Swiss (CD-1) mice. As to conditions: in words, Cook et al., cited from earlier work.
Assay [3] shares this test system. The assay can be described thus: Spermatogenic Index test: testes weight and spermatogenic index after a single oral dose. It is filed as in vivo, mouse. Particulars: male CD-1 mice, mean ± SEM; for Spermatogenic Index: 72 h, scale 1 to 6, 5 to 6 normal, vehicle control 5.5 ± 0.16; for Testes Weight: killed 72 h later, vehicle control 204 ± 11.9. On the procedure:
The compounds of the invention were tested in mice for their effects on spermatogenesis three days after a single oral dose by the procedure described in Cook et al (J. Med. […] Compounds active in this test have been shown also to be anti-fertility compounds. Compounds were screened for antispermatogenic activity by dosing male mice on day 1 with a gavage dose of control vehicle, positive control (compound 1) or compound of the invention. At 72 h after dosing, animals were killed and the testes were excised, trimmed of fat, and weighed. One testis was examined histologically and rated for spermatogenic potential using the Spermatogenic Index [[…]. Noden, J. Cherry and […]. Reprod. […], 72, 277 (1984)], which is a semiquantitative estimate of the sperm producing ability of the testes. The index is based on histological appearance of the spermatogenic cells in the seminiferous tubules. A scale of 1 to 6 is used with 5 to 6 being the normal status. A second assessment was based on the weight of the testes. […] Compounds were given orally to 8-week old male CD-1 mice in a single dose. Seventy-two hours later the animals were killed and the testes weighed. One testis was subjected to histological analysis and scored according to the Spermatogenic Index (SI) of Fail (see Cook et ah, J. Med. […] RTI-4587-056(l), and a vehicle control group was also analyzed.

The test system of another assay is spermatogenesis. Particulars: oral administration to animals; cited from earlier work.
Assay [4] concerns testes / spermatogenesis in rats. Particulars: single oral dose of 30 mg/kg to rats, within 24 h; cited from earlier work.
Where [5] appears, read: average Ki, 25° C., 2 hours, for 074(d) the Ki is a Kd.
The mark [6] stands for this setting: J. Med. Chem., 1997, 40, 2111-2112.

With `CCN1CCC2C(C1)c1ccc(C)cc1C2c1ccc(C)cc1` (stereo not drawn) [RTI-4587-002(d)], the Ki in assay [1] (as stated in the text, listed as -002(d)) turned out to be 6.1 µM. Besides, the “in vivo activity (antispermatogenic)” value in assay [2] (J. Med. Chem., 1997, 40, 2111-2112, listed as -002(d)) is listed as “bioactive”.

In the case of `CCN1CCC2C(C1)c1ccc(C)cc1C2c1ccc(C)cc1` (stereo not drawn) [RTI-4587-002(l)], the Ki in assay [1] (as stated in the text, listed as -002(l)) was 66 µM; in assay [1] (setting [5]), 65.6 µM. For the same molecule, the “in vivo activity (antispermatogenic)” value in assay [2] (J. Med. Chem., 1997, 40, 2111-2112, listed as -002(l)) was “bioinactive”.

`CCN1CCC2C(C1)c1ccc(C)cc1C2c1ccc(C(=O)O)cc1` (stereo not drawn) [RTI-4587-054(d)]: the Ki in assay [1] was ~0.54 µM; in assay [1] (setting [5]), 0.54 µM.

As for `CCN1CCC2C(C1)c1ccc(C)cc1C2c1ccc(C(=O)O)cc1` (stereo not drawn) [RTI-4587-054(l)], the Ki in assay [1] was ~330 µM; in assay [1] (setting [5]) it was 329 µM. The “in vivo activity (antispermatogenic)” value in assay [2] (setting [6]) was “inactive”.

In assay [1] (setting [5]), `CCN1CCC2C(C1)c1ccc(C)cc1C2c1ccc(C(=O)OC)cc1` (stereo not drawn) [RTI-4587-056(d)] showed a Ki of 207 µM.

In turn, `CCN1CC[C@H]2[C@H](c3ccc(C(=O)OC)cc3)c3cc(C)ccc3[C@H]2C1` [RTI-4587-056(l)] registered a Ki in assay [1] (setting [5]) of 2.7 µM. For the same molecule, in assay [3] (single oral dose 30 mg/kg, n=4), the “Spermatogenic Index” value worked out at 3.69 ± 0.07 and the “Testes Weight” value is 173 ± 8.8 mg.

On to `CCN1CC[C@@H]2[C@@H](c3ccc(C(=O)OC)cc3)c3cc(C)c(I)cc3[C@@H]2C1` [RTI-4587-073(d)], for which, in assay [1] (setting [5]), the Ki came to 67.3 µM.

Turning to `CCN1CC[C@H]2[C@H](c3ccc(C(=O)OC)cc3)c3cc(C)c(I)cc3[C@H]2C1` [RTI-4587-073(l), (4aS, 5R, 9bS)-5-(4-Carbomethoxyphenyl)-2-ethyl-2,3,4,4a,5,9b-hexahydro-8-iodo-7-methyl-1H-indeno[1,2-c]pyridine], the Ki in assay [1] (setting [5]) was 0.32 µM. For the same molecule, in assay [3] (single oral dose 1 mg/kg, n=5), the “Spermatogenic Index” value is given as 2.92 ± 0.15 and the “Testes Weight” value is on record as 144 ± 4.9 mg.

Consider `CCN1CCC2C(C1)c1cc(I)c(C)cc1C2c1ccc(C(=O)O)cc1` (stereo not drawn) [RTI-4587-074(d)], for which the Ki in assay [1] (setting [5]) was ~0.027 µM; in assay [1] (average Ki, 25° C., 2 hours, for 074(d) the Ki is a Kd, listed as 074(d)) it was 0.027 µM. The “in vivo activity (antispermatogenic)” value in assay [2] (setting [6]) was “much greater in vivo activity”.

For `C#Cc1cc2c(cc1C)[C@@H](c1ccc(C(=O)OC)cc1)[C@@H]1CCN(CC)C[C@H]21` [RTI-4587-107, (4aS, 5R, 9bS)-5-(4-Carbomethoxyphenyl)-2-ethyl-8-ethynyl-2,3,4,4a,5,9b-hexahydro-7-methyl-1H-indeno[1,2-c]pyridine], in assay [3] (single oral dose 20 mg/kg, n=5), the “Spermatogenic Index” value was 1.56 ± 0.20 and the “Testes Weight” value was found to be 134.4 ± 7.0 mg.

As for `CCN1CC[C@H]2[C@H](c3ccc(C(=O)OC)cc3)c3cc(C)c(C#Cc4ccccc4)cc3[C@H]2C1` [RTI-4587-109, (4aS, 5R,9bS)-5-(4-Carbomethoxyphenyl)-2-ethyl-2,3,4,4a,5,9b-hexahydro-7-methyl-8-(2-phenylethynyl)-1H-indeno[1,2-c]pyridine], in assay [3] (single oral dose 20 mg/kg, n=5), the “Spermatogenic Index” value was determined as 4.26 ± 0.12 and the “Testes Weight” value is 168.1 ± 16.4 mg.

Take `CCN1CC[C@@H]2[C@@H](c3ccc(C)cc3)c3cc(C)ccc3[C@@H]2C1.Cl` [Sandoz 20-438]: the inhibition of spermatogenesis result in the assay with spermatogenesis is “reversible inhibition of spermatogenesis”. Besides, the “weights of the testes” value in assay [4] is “drastically reducing”.
